Source: patent US7550510B2, “Solid phase synthesis of arylretinamides” (Wisconsin Alumni Research Foundation, priority 2001, dated 2009)

Key:
MCF-7 cells [1] = assay: Inhibition of growth of cultured MCF-7 cells (cell number 48 h after a single dose); assay type: cell-based, human; details: activity vs. 4-HPR standard
Method: MCF-7 cells were maintained in DMEM supplemented as recommended by ATCC. Cells were plated (10,000/well) and dosed 24 h later dosed with the arylretinamide.

MCF-7 cells [2] = assay: Induction of apoptosis in MCF-7 cells, TUNEL assay; assay type: cell-based; details: MCF-7 human breast cancer cell line, FIG. 4
Text: When DNA strands are cleaved or nicked by nucleases, a large number of 3′-hydroxyl ends are exposed. In the TUNEL assay (terminal deoxynucleotidyl transferase dUTP nick end labeling), these ends are labeled with UTP using mammalian terminal deoxynucleotidyl transferase (TdT), which covalently adds labeled nucleotides to the 3′-hydroxyl ends of these DNA fragments in a template-independent fashion. The UTP is then detected using specific probes (e.g., you can incorporate BrdUTP and then use a fluorescent anti-BrdU antibody). The assay can be used on cells in situ or the cells can be analyzed by flow cytometry.
The ability of arylretinamides 1, 7, 10, 11, 18, 19, 27, 32, 33, 41, 42, and 44 to induce apoptosis in MCF-7 cells was determined using a TUNEL assay as described in Engeland, M V; Nieland, L J W; Ramackers, F C S; Schutte, B; Reutelingsperger, CPM Cytometry 1998, 31, 1, which is specifically incorporated by reference.

[3] = all at 10^−5 M, 48 hours after a single dose

melting point [°C] | SMILES | growth inhibition (MCF-7 cells [1]; [3]) | further results
 | CC1=C(/C=C/C(C)=C/C=C/C(C)=C/C(=O)Nc2cc(C)c(O)cc2C)C(C)(C)CCC1 [Compound 2, N-(4′-hydroxy-2′,5′-dimethylphenyl)retinamide] | − | 
 | CC1=C(/C=C/C(C)=C/C=C/C(C)=C/C(=O)Nc2ccc(O)cc2)C(C)(C)CCC1 [Compound 41, N-(4′-hydroxyphenyl)retinamide, reference compound] | ++ (++ = >50% the activity of standard) | 
 | COC(=O)c1ccc(O)c(NC(=O)/C=C(C)/C=C/C=C(C)/C=C/C2=C(C)CCCC2(C)C)c1 [Compound 29, N-(2′-hydroxy-5′-carboxymethylphenyl)retinamide] | − | 
176 to 176.5 | CC1=C(/C=C/C(C)=C/C=C/C(C)=C/C(=O)Nc2cccc(O)c2C)C(C)(C)CCC1 [Compound 8, N-(3′-hydroxy-2′-methylphenyl)retinamide] | − | 
152 to 153.5 | CC1=C(/C=C/C(C)=C/C=C/C(C)=C/C(=O)Nc2ccc([N+](=O)[O-])cc2O)C(C)(C)CCC1 [Compound 18, N-(2′-hydroxy-4′-nitrophenyl)retinamide] | ++ (++ = >50% the activity of standard) | inducing apoptosis of cells (MCF-7 cells [2]): effective at inducing apopotosis
172.5 to 175 | CC1=C(/C=C/C(C)=C/C=C/C(C)=C/C(=O)Nc2ccc(C)c(O)c2)C(C)(C)CCC1 [Compound 7, N-(3′-hydroxy-4′-methylphenyl)retinamide] | + (+ = <50% the activity of standard) | inducing apoptosis of cells (MCF-7 cells [2]): effective at inducing apopotosis
72 to 74 | CC1=C(/C=C/C(C)=C/C=C/C(C)=C/C(=O)Nc2ccccc2CO)C(C)(C)CCC1 [Compound 31, N-(2′-hydroxymethylphenyl)retinamide] |  | 
 | COC(=O)c1cc(NC(=O)/C=C(C)/C=C/C=C(C)/C=C/C2=C(C)CCCC2(C)C)ccc1O [Compound 27, N-(4′-hydroxy-3′-carboxymethylphenyl)retinamide] | + (+ = <50% the activity of standard) | 
118 to 120.5 | CC1=C(/C=C/C(C)=C/C=C/C(C)=C/C(=O)Nc2cccc(CO)c2)C(C)(C)CCC1 [Compound 32, N-(3′ hydroxymethylphenyl)retinamide] | + (+ = <50% the activity of standard) | inducing apoptosis of cells (MCF-7 cells [2]): perhaps, 32 are effective at inducing apopotosis
 | CC1=C(/C=C/C(C)=C/C=C/C(C)=C/C(=O)Nc2ccc(N)cc2)C(C)(C)CCC1 [Compound 33, N-(4′-aminophenyl)retinamide] | + (+ = <50% the activity of standard) | 
131.5 to 132.5 | CC1=C(/C=C/C(C)=C/C=C/C(C)=C/C(=O)Nc2ccc(O)cc2Cl)C(C)(C)CCC1 [Compound 10, N-(2′-chloro-4′-hydroxyphenyl)retinamide] | − | 
 | CC1=C(/C=C/C(C)=C/C=C/C(C)=C/C(=O)Nc2c(O)cccc2C(=O)O)C(C)(C)CCC1 [Compound 24, N-(2′-hydroxy-6′-carboxyphenyl)retinamide] |  | growth inhibition (MCF-7 cells [1]; compound at 3.9 × 10^−6 M): −
 | CC1=C(/C=C/C(C)=C/C=C/C(C)=C/C(=O)Nc2ccc(O)c(C(=O)O)c2)C(C)(C)CCC1 [Compound 28, N-(4′-hydroxy-3′-carboxyphenyl)retinamide] | − | 
 | CCOc1ccc(NC(=O)/C=C(C)/C=C/C=C(C)/C=C/C2=C(C)CCCC2(C)C)cc1 [Compound 45, N-(4′-ethoxyphenyl)retinamide, reference compound] |  | growth inhibition (MCF-7 cells [1]; compound at 7.4 × 10^−6 M): −
 | CC(C=CC1=C(C)CCCC1(C)C)=CC=CC(C)=CC(=O)Nc1ccccc1C(=O)O [Compound 44, N-(2′-carboxyphenyl)retinamide, reference compound] | + (+ = <50% the activity of standard) | 
115 to 118 | CC1=C(/C=C/C(C)=C/C=C/C(C)=C/C(=O)Nc2cc(Cl)ccc2O)C(C)(C)CCC1 [Compound 12, N-(5′-chloro-2′-hydroxyphenyl)retinamide] | − | 
145 to 147 | CCS(=O)(=O)c1ccc(NC(=O)/C=C(C)/C=C/C=C(C)/C=C/C2=C(C)CCCC2(C)C)c(O)c1 [Compound 30, N-(4′-ethylsulfonyl-2′-hydroxyphenyl)retinamide] | − | 

melting point [°C] | SMILES | growth inhibition (MCF-7 cells [1]; [3]) | further results
141 to 145 | CC1=C(/C=C/C(C)=C/C=C/C(C)=C/C(=O)Nc2ccc(O)cc2C)C(C)(C)CCC1 [Compound 1, N-(2′-methyl-4′-hydroxyphenyl)retinamide] | − | inducing apoptosis of cells (MCF-7 cells [2]): effective at inducing apopotosis
157 to 159.5 | CC1=C(/C=C/C(C)=C/C=C/C(C)=C/C(=O)Nc2ccc(O)c([N+](=O)[O-])c2)C(C)(C)CCC1 [Compound 17, N-(4′-hydroxy-3′-nitrophenyl)retinamide] | − | 
 | CC1=C(/C=C/C(C)=C/C=C/C(C)=C/C(=O)Nc2ccc(C(=O)O)c(O)c2)C(C)(C)CCC1 [Compound 26, N-(3′-hydroxy-4′-carboxyphenyl)retinamide] | − | 
 | CC1=C(/C=C/C(C)=C/C=C/C(C)=C/C(=O)Nc2ccc(C(=O)O)cc2O)C(C)(C)CCC1 [Compound 22, N-(2′-hydroxy-4′-carboxyphenyl)retinamide] | − | 
168 to 169 | CC1=C(/C=C/C(C)=C/C=C/C(C)=C/C(=O)Nc2ccc(O)c(Cl)c2)C(C)(C)CCC1 [Compound 11, N-(3′-chloro-4′-hydroxyphenyl)retinamide] | + (+ = <50% the activity of standard) | inducing apoptosis of cells (MCF-7 cells [2]): effective at inducing apopotosis
139 to 140 | CC1=C(/C=C/C(C)=C/C=C/C(C)=C/C(=O)Nc2cc(Cl)c(O)c(Cl)c2)C(C)(C)CCC1 [Compound 13, N-(3′,5′-dichloro-4′-hydroxyphenyl)retinamide] | − | 
119 to 124 | COc1ccc(NC(=O)/C=C(C)/C=C/C=C(C)/C=C/C2=C(C)CCCC2(C)C)cc1O [Compound 9, N-(3′-hydroxy-4′-methoxyphenyl)retinamide] | − | 
144 to 146.5 | CC1=C(/C=C/C(C)=C/C=C/C(C)=C/C(=O)Nc2cc(C(C)(C)C)ccc2O)C(C)(C)CCC1 [Compound 5, N-(2′-hydroxy-5′-tert-butylphenyl)retinamide] | − | 
146 to 147.5 | CC1=C(/C=C/C(C)=C/C=C/C(C)=C/C(=O)Nc2ccc(C)cc2O)C(C)(C)CCC1 [Compound 3, N-(2′-hydroxy-4′-methylphenyl)retinamide] | − | 
 | CC1=C(/C=C/C(C)=C/C=C/C(C)=C/C(=O)Nc2c(C)cccc2O)C(C)(C)CCC1 [Compound 6, N-(2′-hydroxy-6′-methylphenyl)retinamide] | − | 
 | COC(=O)c1cccc(NC(=O)/C=C(C)/C=C/C=C(C)/C=C/C2=C(C)CCCC2(C)C)c1O [Compound 20, N-(2′-hydroxy-3′-carboxymethylphenyl)retinamide] | − | 
 | CC1=C(/C=C/C(C)=C/C=C/C(C)=C/C(=O)Nc2cccc(C(=O)O)c2O)C(C)(C)CCC1 [Compound 21, N-(2′-hydroxy-3′-carboxyphenyl)retinamide] | − | 
151.5 to 153 | CC1=C(/C=C/C(C)=C/C=C/C(C)=C/C(=O)Nc2cc([N+](=O)[O-])ccc2O)C(C)(C)CCC1 [Compound 19, N-(2′-hydroxy-5′-nitrophenyl)retinamide] | ++ (++ = >50% the activity of standard) | 
 | CC1=C(/C=C/C(C)=C/C=C/C(C)=C/C(=O)Nc2cc(Br)c(O)c(Br)c2)C(C)(C)CCC1 [Compound 14, N-(3′,5′-dibromo-4′-hydroxyphenyl)retinamide] | − | 
112 to 117 | CC1=C(/C=C/C(C)=C/C=C/C(C)=C/C(=O)Nc2ccc(O)cc2[N+](=O)[O-])C(C)(C)CCC1 [Compound 16, N-(4′-hydroxy-2′-nitrophenyl)retinamide] | − | 
140 to 142 | CC1=C(/C=C/C(C)=C/C=C/C(C)=C/C(=O)Nc2cc(Cl)c(C)c(Cl)c2O)C(C)(C)CCC1 [Compound 15, N-(3′,5′-dichloro-2′-hydroxy-4′-methylphenyl)retinamide] | − | 
98 to 100 | CC1=C(/C=C/C(C)=C/C=C/C(C)=C/C(=O)Nc2cc(C)ccc2O)C(C)(C)CCC1 [Compound 4, N-(2′-hydroxy-5′-methylphenyl)retinamide] | − | 
